Laboratory results taken from PubChem BioAssay (NCI).
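Compound exposure: 48 hours, 5 concentrations, 96-well plates. TGI: total growth inhibition.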

Legend:
Test in all cases: growth of human tumour cells (NCI), 48 h
786-0 renal = tested on: 786-0 renal
BT-549 breast = tested on: BT-549 breast
HCT-15 colon = tested on: HCT-15 colon
HS 578T breast = tested on: HS 578T breast
M14 melanoma = tested on: M14 melanoma
MDA-N = tested on: MDA-N
NCI-H226 lung = tested on: NCI-H226 lung
NCI-H23 lung = tested on: NCI-H23 lung
OVCAR-4 ovarian = tested on: OVCAR-4 ovarian
OVCAR-5 ovarian = tested on: OVCAR-5 ovarian
PC-3 prostate = tested on: PC-3 prostate
SF-268 CNS = tested on: SF-268 CNS
SF-295 CNS = tested on: SF-295 CNS
SF-539 CNS = tested on: SF-539 CNS
SNB-19 CNS = tested on: SNB-19 CNS
SR leukemia = tested on: SR leukemia
TK-10 renal = tested on: TK-10 renal
U251 CNS = tested on: U251 CNS
MALME-3M melanoma = tested on: MALME-3M melanoma
MOLT-4 leukemia = tested on: MOLT-4 leukemia

Compound | TGI (786-0 renal) [µM] | TGI (BT-549 breast) [µM] | TGI (HCT-15 colon) [µM] | TGI (HS 578T breast) [µM] | TGI (M14 melanoma) [µM] | TGI (MDA-N) [µM] | TGI (NCI-H226 lung) [µM] | TGI (NCI-H23 lung) [µM] | TGI (OVCAR-4 ovarian) [µM] | TGI (OVCAR-5 ovarian) [µM] | TGI (PC-3 prostate) [µM] | TGI (SF-268 CNS) [µM] | TGI (SF-295 CNS) [µM] | TGI (SF-539 CNS) [µM] | TGI (SNB-19 CNS) [µM] | TGI (SR leukemia) [µM] | TGI (TK-10 renal) [µM] | TGI (U251 CNS) [µM] | TGI (MALME-3M melanoma) [µM] | TGI (MOLT-4 leukemia) [µM]
COc1cc(C2SCC(=O)N2c2ccccc2Cl)cc(OC)c1OC (configuration not stated) | > 100 | > 100 | > 100 | > 100 | > 100 | 44.8 | > 100 | > 100 | > 100 | > 100 | > 100 | > 100 | > 100 | > 100 | > 100 | > 100 | > 100 | > 100 |  | 
Cc1c(C)c2c(c(N)c1C#N)C(=O)N(CCc1ccccc1)C2=O | > 100 | > 100 | > 100 | > 100 | > 100 | > 100 | > 100 |  | > 100 | > 100 | > 100 | > 100 | > 100 | > 100 | > 100 | > 100 | > 100 | > 100 | > 100 | > 100
O=C1CC(=O)NC(=NN2C(=O)/C(=C/C(=O)c3ccco3)N=C2c2ccccc2)N1 | > 100 | > 100 | > 100 | > 100 | > 100 | > 100 | > 100 | > 100 | > 100 | > 100 | > 100 | > 100 | > 100 | > 100 |  | 41.3 | > 100 | > 100 | > 100 | 60.7
O=C(N/N=C/c1ccc2c(c1)OCO2)Nc1ccccc1Cl | > 55 | 75.7 | > 100 | 8.25 | > 39.5 | 0.501 | > 73.5 | > 43.8 | > 100 | > 100 | > 100 | > 82.5 | 6.84 | 24.8 | > 79.3 | > 34.2 | 21 | > 100 | 56.2 | > 100
CCOC(=O)C(C(=O)OCC)=C1NC2(c3ccccc3Nc3ccc(C)cc32)C(C#N)S1 (configuration not stated) | 30.1 | 29.5 | 29.5 | 46.5 | 17.6 | 46.3 | 25.3 | 12.3 | 40.7 | 27.7 | 13.7 | 36.2 | 58.7 | 12 | 30.8 | 4.99 | 31.1 | 17.9 | 30.7 | 5.76
Nc1nc(Cl)c(N)c(NCC2(CO)CCC2)n1 | > 100 | > 100 | > 100 | > 100 | > 100 | > 100 | > 100 | > 100 | > 100 | > 100 | > 100 | > 100 | > 100 | > 100 | > 100 | > 100 | > 100 | > 100 | > 100 | > 100
O=C1CC(CC(O)[C@@H]2CCCC[C@@H]2O)CC(=O)N1c1ccccc1 (some centres not stated) | > 100 | > 100 | > 100 | > 100 | > 100 | > 100 | > 100 | > 100 | > 100 | > 100 | > 100 | > 100 | > 100 | > 100 | > 100 | > 100 | > 100 | > 100 | > 100 | > 100
COC(=O)C(Cc1c[nH]c2ccccc12)N=C1Nc2ccncc2S(=O)(=O)N1c1ccccc1 (configuration not stated) | > 100 | > 100 | > 100 | > 100 | > 100 | > 100 | 61.4 | > 100 | 75.7 | > 100 | 54 | > 100 | > 100 | 35 | > 100 | 42.1 | > 100 | > 100 | 40.5 | 35.1
COc1ccc(/C=C2\CCC(CNc3cc(C)on3)C2=O)cc1 (configuration not stated) | > 100 | > 100 | > 100 | > 100 | > 100 | > 100 | > 100 | > 100 | > 100 | > 100 | > 100 | > 100 | > 100 | > 100 | > 95.5 | > 100 | > 100 | > 100 | > 100 | > 100
CCN(CC)C1Oc2cc3c(cc2C(c2ccc(OC)cc2)C1C)OCO3 (configuration not stated) | 48 | 67 | 98.1 | 48.2 | 51.4 | 65.5 | 54.7 | 51 |  | 58.9 | 72.6 | 50.1 | 63.1 | 40.1 | 83.7 | 27.6 | 56.2 | 54.9 | 37.3 | 41.8
O=c1[nH]c(C23CC4CC(CC(C4)C2)C3)cc2c1c(=O)oc1ccccc12 | 3.1 | 38.2 | 81.3 | > 20.3 | 39.6 | > 59.3 | 5.75 | 23 | 14 | 22.8 | 10.5 | 9.52 | 12.9 | 17.4 | 17.7 | 9.31 | 12.2 | 7.55 | 13.7 | > 100
Cc1ccc2c(c1)C(=O)/C(=N/Nc1ccc(Cl)cc1)CCO2 | > 100 | > 100 | > 100 | > 100 | > 100 | > 100 | > 100 | > 100 | > 100 | > 100 | > 100 | > 100 | > 100 | > 100 | > 100 | > 100 | > 100 | > 100 | > 100 | > 100
CCOC(=O)C(SCCO)C(C(=O)OCC)n1cnc2c(N)ncnc21 (configuration not stated) | 12.2 | 30.8 | 22.5 | 59.2 | 9.83 | 44.1 | 38 | 31.2 | > 48.3 | 18.6 | 14.7 | 35.9 | > 100 | 35.5 | > 69.1 | 14.5 | 28.3 | 20.4 | 23.8 | 20
CC(=O)O[C@H]1CC[C@H]2[C@@H]3CCC4C(C)=NNC(=O)C4[C@H]3CC[C@]12C (some centres not stated) | > 100 | > 69.7 | > 100 | 64.2 | > 100 | > 100 | > 100 | > 100 | > 100 | > 100 | > 100 | > 100 | > 100 | > 100 | > 82.9 | > 100 | > 100 | > 100 | > 100 | > 100
C=C(Cl)c1c(OC)cccc1OCc1ccccc1 | > 100 | > 100 | > 100 | > 100 | > 100 | > 100 | > 100 | > 100 | > 100 | > 100 | > 100 | > 100 | > 100 | > 100 | > 100 | > 100 | > 100 | > 100 | > 100 | > 100
CC(=O)C(=[N+]=[N-])C(=O)NCC#N | > 10 | > 10 | > 10 | > 10 | > 10 | > 10 | > 10 | > 10 | > 10 | > 10 | > 10 | > 10 | > 10 | > 10 | > 10 | > 10 | > 10 | > 10 | > 10 | > 10
Nc1nc(N)c2cc(Sc3ccc4nc(N)nc(N)c4c3)ccc2n1 |  | > 100 | > 100 | > 100 | > 100 | > 100 | > 100 |  | > 100 | > 100 | > 100 | > 100 |  | > 100 | > 100 | > 100 | > 100 | > 100 | > 100 | > 100
COc1nc(C)nc2sc3c(c12)CCCC3 | > 100 | > 100 | > 100 | > 100 |  | > 100 | > 100 | > 100 | > 100 | > 100 | > 100 | > 100 | > 100 |  | > 100 | > 100 | > 100 | > 100 | > 100 | > 100
CO[C@H]1c2cccc3cccc(c23)[C@@H]1n1[nH]c(=O)n(C(C)(C)C)c1=O | > 100 | > 100 | > 100 | > 100 | > 100 | > 100 | > 100 | > 100 | > 100 | > 100 | > 100 | > 100 |  | > 100 | > 100 | > 100 | > 100 | > 100 | > 100 | > 100
COc1ccc2nc3c([N+](=O)[O-])ccc4c3c(c2c1)N=CN4CCCN(C)C | 14.3 | 23.5 | 15.2 | 27.5 | 23.6 | 21.8 | 24.9 | 18.7 |  | 25.5 | 13 | 17.8 | 18.2 | 13 | 22.2 | 1.03 | 6.51 | 24.3 | 28.2 | 0.757
COC(=O)c1cc2c(o1)Sc1ccccc1NC2=O | > 100 | > 100 | > 100 | 63.8 | > 100 | > 100 | > 100 | > 100 | > 100 | > 100 | > 100 | > 100 | > 100 | > 100 | > 100 | > 100 | > 100 | > 100 |  | > 100
O=C(Nc1cccc2ccccc12)Nn1cnnc1 |  | > 100 | > 100 | > 100 | > 100 | > 100 | > 100 | > 100 | > 100 | > 100 | > 100 | > 100 | > 100 | > 100 | > 100 | > 100 | > 100 | > 100 | > 100 | > 100
Cc1csc2nc3c(cnn3C)c(=S)n12 | > 100 | > 100 | > 100 | > 100 | > 100 | > 100 |  | > 100 | > 100 | > 100 | > 100 | > 100 | > 100 | > 100 | > 100 | > 100 | > 100 | > 100 | > 100 | > 100
ClC1(Cl)C(c2ccccc2)C1c1ccccc1 (configuration not stated) | > 100 | 77.4 | > 100 | > 100 | 90.7 | 35.2 | 33.9 | 76.8 | > 100 | > 100 | > 100 | > 100 | 82.3 |  | > 100 | 55.4 | > 100 | > 100 |  | > 100
N#C/C(=C\c1cn(Cc2ccccc2)c2ccccc12)c1nn(-c2ccccc2)c(N)c1C#N | 21.3 | 58.3 | > 100 | > 100 | 46.1 | 88.1 |  | 29.7 | 13.7 | 51.5 | 19.8 | 91.7 | 26.4 | 7.22 | 28.8 | > 100 | 35.8 | 26.5 | 47.4 | > 100
